Experimental findings from ChEMBL document CHEMBL1150961, “Tenuecyclamides A-D, cyclic hexapeptides from the cyanobacterium Nostoc spongiaeforme var. tenue” (1998) are described below.

Each structure is given as a SMILES string.

The assay has as its system Paracentrotus lividus. Briefly: Inhibition of sea urchin egg fertilization by sea urchin sperm assessed as inhibition of divided eggs. The format is functional.
For the molecule `Cc1oc2nc1C(=O)NC(C)c1nc(cs1)C(=O)NC(C)c1nc(cs1)C(=O)N[C@H]2C` (stereo partly drawn) [TENUECYCLAMIDE A], the ED100 was 10.8 µM. As to `CSCC[C@@H]1NC(=O)c2csc(n2)CNC(=O)c2nc(oc2C)[C@H](C)NC(=O)c2csc1n2` [TENUECYCLAMIDE C], the ED100 was determined as 9 µM. Under `Cc1oc2nc1C(=O)NCc1nc(cs1)C(=O)N[C@@H](CC[S+](C)[O-])c1nc(cs1)C(=O)N[C@H]2C` (stereo partly drawn) [TENUECYCLAMIDE D] stands 19.1 µM.
